Drawing on patent US10344048B2, “Certain chemical entities, compositions, and methods” (priority 2011, dated 2019), this text covers IC50 for two compounds.

For this assay, the system named is A549 cells. The assay is described as follows: Inhibition of cell growth in tumor cells, MTT assay. The class given is cell-based. The following applies: Homo sapiens, read-out: A549 cell IC50. The procedure:
Inhibition of cell growth by compounds was measured using MTT assay (Mosmann, T., Journal of Immunological Methods, 1983, 65, 55-63). Tumor cell lines were purchased from ATCC (American Type Culture Collection, Manassas, Va.). All cell lines were maintained in RPMI 1640 (Hyclone) supplemented with 10% fetal bovine serum (FBS, Hyclone), glutamine (2 mM, Hyclone), and antibiotics (penicillin 100 U/mL and streptomycin 50 μg/mL) at 37° C. in a humidified atmosphere of 5% CO2 in air. Taxol (positive control, Sigma) and compounds were dissolved in DMSO (Sigma), and the final concentration of DMSO in the medium was 1%. Tumor cells were plated in 96-well plates at densities from 4000 cells/well of a 96-well plate and allowed to adhere/grow for 24 h. They were then treated with various concentrations of drug for 72 h. […] The number of cells remaining after 72 h was compared to the number of viable cells at the time of compound addition by measuring the absorbance at 570 nm, allowing for the calculation of growth inhibition.
All concentrations of compounds were tested in triplicate and controls were averaged over 4 wells. IC50 was calculated by plotting the concentration of compound vs the percentage of inhibition in treated wells using GraphPad Prism 5. […]
In general terms: Tetrazolium dyes change colour on reduction, which living cells bring about.

Structures are written as SMILES. Like-named read-outs stand apart in the source and are kept apart here.

With `CC(=O)O[C@H]1C[C@]2(O)[C@@H]3CC[C@@H]4C[C@@H](OC(=O)N5CCNCC5)CC[C@]4(C)[C@H]3CC[C@]2(C)[C@H]1c1ccc(=O)oc1` [(3S,5R,8R,9S,10S,13R,14S,16S,17R)-16-acetoxy-14-hydroxy-10,13-dimethyl-17-(2-oxo-2H-pyran-5-yl)hexadecahydro-1H-cyclopenta[a]phenanthren-3-yl piperazine-1-carboxylate], the IC50 (as a rule, the midpoint of a concentration-inhibition curve) (A549, 72 h) was determined as 5.6 nM.

As to `C[C@]12CC[C@H](OC(=O)N3CCNCC3)C[C@H]1CC[C@@H]1[C@@H]2CC[C@]2(C)[C@@H](C3=CC(=O)OC3)CC[C@]12O` [(3S,5R,8R,9S,10S,13R,14S,17R)-14-hydroxy-10,13-dimethyl-17-(5-oxo-2,5-dihydrofuran-3-yl)hexadecahydro-1H-cyclopenta[a]phenanthren-3-yl piperazine-1-carboxylate], the IC50 (A549 cells, MTT assay, 72 h compound exposure) is 39 nM.
